Measured values reported in article PMC3269340, “Pharmacokinetics of memantine in rats and mice” (PLoS Currents, 2012).
Values joined by “and” are separate entries in the source; they are usually repeats but may differ in a detail not shown here. Identical values can stand only once. Like-named read-outs stand apart in the source and are kept apart here.

Tests used:
[1] = target: T1, human OCT1 (Homo sapiens, UniProt O15245); assay: Indirect uptake transporter assay, OCT1; type: in vitro ADME
T1 construct: expressed in transfected cells; host or cells: CHO cells
T1 sequence (O15245 1-554): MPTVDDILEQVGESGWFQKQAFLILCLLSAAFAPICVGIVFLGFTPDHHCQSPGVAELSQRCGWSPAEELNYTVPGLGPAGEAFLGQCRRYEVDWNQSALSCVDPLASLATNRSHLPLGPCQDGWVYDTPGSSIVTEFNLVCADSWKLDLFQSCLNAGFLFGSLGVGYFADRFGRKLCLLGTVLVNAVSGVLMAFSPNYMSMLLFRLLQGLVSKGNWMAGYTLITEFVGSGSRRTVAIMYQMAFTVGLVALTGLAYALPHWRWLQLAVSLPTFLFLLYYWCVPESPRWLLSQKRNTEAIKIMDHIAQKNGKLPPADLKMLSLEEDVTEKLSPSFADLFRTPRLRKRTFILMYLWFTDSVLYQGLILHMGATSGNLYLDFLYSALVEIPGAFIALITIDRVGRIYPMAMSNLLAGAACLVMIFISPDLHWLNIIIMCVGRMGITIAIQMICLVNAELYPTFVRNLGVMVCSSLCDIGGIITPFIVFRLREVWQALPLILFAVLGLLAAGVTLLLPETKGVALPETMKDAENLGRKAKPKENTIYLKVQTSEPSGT
Description: To determine whether memantine is an inhibitor of the human OATP2B1 (OATP-B), OCT1, OCT2, OAT3, PEPT1, PEPT2 uptake transporters. The standard uptake transporter assay is an indirect, inhibitory-type screening assay, performed with cold test article, which in this case was memantine. It provides information on any interaction (substrate or inhibitor) between selected uptake transporters and memantine that would affect the transport of the reporter compound. […] A radiolabeled reporter substrate is transported into the cells transfected with the selected human uptake transporter, and the inhibitory effect of memantine on the transport of this reporter substrate is measured. Values are presented on a relative scale; 100% defined as transport in the presence of the solvent and without memantine (no inhibition), and 0% defined as transport detected without transporter activity. IC50 is defined as the concentration required to inhibit the transport of the reporter substrate by 50%. […]
After the experiment cells were rinsed with 2 x 100µl of Krebs-Henseleit buffer and lysed with 50 µl of 0.1M NaOH. ^3H-estrone-3-sulfate, ^14C-TEA, ^14C-metformin and ^3H-Gly-Sar transport was determined by total radioactivity by transferring an aliquot (35µl) from each well to a vial containing liquid scintillant for analysis.

[2] = Metabolite identification in rat liver microsomes; type: in vitro ADME; settings: 10 µM, 1 mg/mL rat liver microsomal protein, 60 min
Experimental: Metabolites of memantine were characterized following incubation in pooled rat liver microsomes. Incubation conditions were as described above (Section 4.1), except that for metabolite identification the memantine concentration was 10 µM, 1 mg/mL of liver microsomal protein was used, and the metabolites were identified following a 60 min incubation period. Control incubations (T=0 min) were used as reference, and testosterone incubations were used as a positive control.
Full scan mass spectra were acquired by TOF-MS as accurate mass. The instruments were controlled and data acquired by Waters MassLynx™ version 4.1 (SCN 714) software. The TOF-MS spectra were interrogated and metabolite reports generated by Waters MetaboLynx™ XS software.

[3] = Human pharmacokinetics (literature); type: in vivo

Structure (SMILES): CC12CC3CC(C)(C1)CC(N)(C3)C2 [memantine]
- Maximal Inhibition ([1]; OCT1, up to 300 µM): ~94%
- IC50 ([1]; OCT1, probe in Table 5: Gly-Sar (1.8 μM), methods and text: TEA): 3.5 µM and 3.51 µM
- most abundant metabolite (based on uv signal response) [2]: product of a single aliphatic hydroxylation
- Contribution of active transport to clearance [3]: 30-40%
- renal clearance higher than human GFR of 125 mL/min [3]: approximately 30%
- total systemic clearance, times higher than GFR [3]: ~1.4 fold
- total systemic clearance, times higher than GFR ([3]; listed as Memantine): ~ 1.4 fold
- clearance ([3]; plasma, oral, 10 mg, estimated, read-out: Cl p (converted)): 2.67 mL/min/kg
